Data as given in ChEMBL document CHEMBL1147569, “Synthesis and structure-activity relationships of (R)-1-alkyl-3-[2-(2-amino)phenethyl]-5-(2-fluorophenyl)-6-methyluracils as human GnRH receptor antagonists” (Bioorg Med Chem Lett, 2004).
pIC50, pKi: −log10 of the molar value.

tested on: HEK293; assay: Inhibitory activity against GnRH (5 nM) stimulated [Ca2+] release in transfected cells; type: functional, cell-based; conditions: Homo sapiens

`Cc1c(-c2ccccc2F)c(=O)n(C[C@H](N)c2ccccc2)c(=O)n1Cc1c(F)cccc1Cl` showed a pIC50 of 8.55.

biological target: T1, Gonadotropin-releasing hormone receptor (Homo sapiens, UniProt P30968); assay: Binding affinity towards human gonadotropin-releasing hormone receptor expressed in HEK293 cells using des-Gly10-[125I]Tyr,5 DLeu,6 NMeLeu,7 Pro9-NEt GnRH as radioligand.; type: cell-based; conditions: not given
T1 sequence (P30968 whole entry): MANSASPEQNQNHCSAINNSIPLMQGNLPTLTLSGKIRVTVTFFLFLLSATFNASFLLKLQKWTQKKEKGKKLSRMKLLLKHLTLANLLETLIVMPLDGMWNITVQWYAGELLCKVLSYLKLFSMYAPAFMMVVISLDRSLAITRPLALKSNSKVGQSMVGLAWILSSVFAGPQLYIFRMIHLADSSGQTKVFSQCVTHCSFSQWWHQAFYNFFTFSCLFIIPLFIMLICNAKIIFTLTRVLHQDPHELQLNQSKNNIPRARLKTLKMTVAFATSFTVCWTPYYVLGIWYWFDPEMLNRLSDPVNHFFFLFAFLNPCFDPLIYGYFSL

Point of comparison: `COCCn1c(C)c(-c2ccccc2F)c(=O)n(C[C@H](N)c2ccccc2)c1=O`, pKi 5.77. Against it:
- Cc1c(-c2ccccc2F)c(=O)n(C[C@H](N)c2ccccc2)c(=O)n1Cc1cccc(F)c1 — 1.40 log units higher, 7.17
- Cc1c(-c2ccccc2F)c(=O)n(C[C@H](N)c2ccccc2)c(=O)n1Cc1ccccc1Cl — 1.80 log units higher, 7.57
- Cc1c(-c2ccccc2F)c(=O)n(C[C@H](N)c2ccccc2)c(=O)n1CC1CCCCC1 — 0.93 log units higher, 6.70
- Cc1ccccc1Cn1c(C)c(-c2ccccc2F)c(=O)n(C[C@H](N)c2ccccc2)c1=O — 1.69 log units higher, 7.46
- Cc1c(-c2ccccc2F)c(=O)n(C[C@H](N)c2ccccc2)c(=O)n1Cc1ccc(F)cc1 — 1.35 log units higher, 7.12
- Cc1c(-c2ccccc2F)c(=O)n(C[C@H](N)c2ccccc2)c(=O)n1Cc1ccccn1 — 1.34 log units higher, 7.11
- Cc1c(-c2ccccc2F)c(=O)n(C[C@H](N)c2ccccc2)c(=O)n1Cc1ccccc1C(F)(F)F — 2.63 log units higher, 8.40
- Cc1c(-c2ccccc2F)c(=O)n(C[C@H](N)c2ccccc2)c(=O)n1CCc1ccccn1 — lower, < 5.00
- Cc1c(-c2ccccc2F)c(=O)n(C[C@H](N)c2ccccc2)c(=O)n1CCN1CCNCC1 — lower, < 5.00
- Cc1c(-c2ccccc2F)c(=O)n(C[C@H](N)c2ccccc2)c(=O)n1CCc1ccccc1 — 0.23 log units higher, 6.00
- Cc1c(-c2ccccc2F)c(=O)n(C[C@H](N)c2ccccc2)c(=O)n1Cc1ccccc1 — 1.47 log units higher, 7.24
- Cc1c(-c2ccccc2F)c(=O)n(C[C@H](N)c2ccccc2)c(=O)n1C1CCCCC1 — 0.82 log units higher, 6.59
- Cc1c(-c2ccccc2F)c(=O)n(C[C@H](N)c2ccccc2)c(=O)n1CC1CC1 — within 0.2 log units, 5.96
- Cc1c(-c2ccccc2F)c(=O)n(C[C@H](N)c2ccccc2)c(=O)n1CCN(C)C — lower, < 5.00
- CCCCCn1c(C)c(-c2ccccc2F)c(=O)n(C[C@H](N)c2ccccc2)c1=O — 0.87 log units higher, 6.64
- Cc1c(-c2ccccc2F)c(=O)n(C[C@H](N)c2ccccc2)c(=O)n1Cc1ccc(F)cc1Cl — 1.71 log units higher, 7.48
- Cc1c(-c2ccccc2F)c(=O)n(C[C@H](N)c2ccccc2)c(=O)n1CC(C)C — 0.53 log units higher, 6.30
- Cc1c(-c2ccccc2F)c(=O)n(C[C@H](N)c2ccccc2)c(=O)n1Cc1cccnc1 — 0.38 log units higher, 6.15
- Cc1ccc(Cn2c(C)c(-c3ccccc3F)c(=O)n(C[C@H](N)c3ccccc3)c2=O)o1 — 0.60 log units higher, 6.37
- Cc1c(-c2ccccc2F)c(=O)n(C[C@H](N)c2ccccc2)c(=O)n1C(C)c1ccccc1 (some centres not stated) — 1.08 log units higher, 6.85
- COc1ccccc1Cn1c(C)c(-c2ccccc2F)c(=O)n(C[C@H](N)c2ccccc2)c1=O — 0.87 log units higher, 6.64
- Cc1c(-c2ccccc2F)c(=O)n(C[C@H](N)c2ccccc2)c(=O)n1Cc1ccccc1F — 1.93 log units higher, 7.70
- Cc1c(-c2ccccc2F)c(=O)n(C[C@H](N)c2ccccc2)c(=O)n1Cc1c(F)cccc1F — 2.45 log units higher, 8.22
- Cc1c(-c2ccccc2F)c(=O)n(C[C@H](N)c2ccccc2)c(=O)n1Cc1c(F)cccc1Cl — 3.38 log units higher, 9.15
- Cc1c(-c2ccccc2F)c(=O)n(C[C@H](N)c2ccccc2)c(=O)n1CCO — lower, < 5.00
